Test results from BindingDB's records for doi:10.1124/jpet.108.143271 (Bristol-Myers Squibb, 2008).
Substitutions are numbered along the chain they refer to.

Key:
[1] = biological target: T1, Peroxisome proliferator-activated receptor alpha (Rattus norvegicus, UniProt P37230)
T1 sequence (P37230 whole entry): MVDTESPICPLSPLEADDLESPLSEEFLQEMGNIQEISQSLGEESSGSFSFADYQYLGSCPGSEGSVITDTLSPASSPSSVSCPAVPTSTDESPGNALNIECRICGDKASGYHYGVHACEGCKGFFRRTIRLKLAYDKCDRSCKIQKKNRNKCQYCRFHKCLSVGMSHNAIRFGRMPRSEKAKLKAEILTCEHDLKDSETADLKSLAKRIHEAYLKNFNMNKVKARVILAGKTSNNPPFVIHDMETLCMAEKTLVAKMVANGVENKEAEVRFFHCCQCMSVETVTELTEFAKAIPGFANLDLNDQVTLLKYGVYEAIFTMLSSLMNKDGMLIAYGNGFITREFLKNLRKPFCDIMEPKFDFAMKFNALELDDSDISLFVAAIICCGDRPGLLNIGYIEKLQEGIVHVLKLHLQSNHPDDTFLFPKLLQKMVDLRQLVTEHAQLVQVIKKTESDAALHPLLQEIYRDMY

[2] = biological target: T2, Peroxisome proliferator-activated receptor alpha (Mus musculus, UniProt P23204)
T2 sequence (P23204 whole entry): T1 sequence (P37230 whole entry) with L41I, S50G, A85V, V86I, T88A, N96S, A135V, A207G, N265D

[3] = biological target: T3, Peroxisome proliferator-activated receptor delta (Homo sapiens, UniProt Q03181)
T3 sequence (Q03181 whole entry): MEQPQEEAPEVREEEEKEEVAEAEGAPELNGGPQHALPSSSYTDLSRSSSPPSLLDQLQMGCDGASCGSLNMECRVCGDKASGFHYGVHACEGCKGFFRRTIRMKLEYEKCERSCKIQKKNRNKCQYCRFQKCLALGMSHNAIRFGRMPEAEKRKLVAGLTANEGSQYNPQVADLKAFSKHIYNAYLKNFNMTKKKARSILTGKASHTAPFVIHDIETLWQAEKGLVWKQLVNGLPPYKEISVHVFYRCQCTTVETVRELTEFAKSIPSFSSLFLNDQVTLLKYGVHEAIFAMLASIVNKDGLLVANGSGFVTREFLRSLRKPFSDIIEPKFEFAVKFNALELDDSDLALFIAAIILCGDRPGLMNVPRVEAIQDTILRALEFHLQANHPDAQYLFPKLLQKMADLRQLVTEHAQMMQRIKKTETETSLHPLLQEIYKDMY

[4] = biological target: T4, Peroxisome proliferator-activated receptor alpha (Mesocricetus auratus, UniProt Q7TNH1)
T4 sequence (Q7TNH1 whole entry): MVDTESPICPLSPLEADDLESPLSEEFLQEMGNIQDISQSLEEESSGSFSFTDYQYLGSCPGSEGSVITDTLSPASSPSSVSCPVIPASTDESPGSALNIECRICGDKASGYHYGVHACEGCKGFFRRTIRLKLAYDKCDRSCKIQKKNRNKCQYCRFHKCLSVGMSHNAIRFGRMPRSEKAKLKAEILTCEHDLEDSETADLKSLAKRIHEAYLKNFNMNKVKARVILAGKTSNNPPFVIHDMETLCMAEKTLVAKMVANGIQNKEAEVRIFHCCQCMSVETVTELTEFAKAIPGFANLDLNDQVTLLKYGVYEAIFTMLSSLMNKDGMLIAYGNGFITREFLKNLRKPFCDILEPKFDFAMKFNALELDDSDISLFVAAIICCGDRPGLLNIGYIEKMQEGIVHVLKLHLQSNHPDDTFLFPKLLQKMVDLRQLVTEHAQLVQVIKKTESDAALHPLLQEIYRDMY

[5] = biological target: T5, Peroxisome proliferator-activated receptor gamma (Homo sapiens, UniProt P37231); assay: PPAR gamma Fluorescence Polarization Assay; conditions: pH 8; 22 °C
T5 sequence (P37231 whole entry): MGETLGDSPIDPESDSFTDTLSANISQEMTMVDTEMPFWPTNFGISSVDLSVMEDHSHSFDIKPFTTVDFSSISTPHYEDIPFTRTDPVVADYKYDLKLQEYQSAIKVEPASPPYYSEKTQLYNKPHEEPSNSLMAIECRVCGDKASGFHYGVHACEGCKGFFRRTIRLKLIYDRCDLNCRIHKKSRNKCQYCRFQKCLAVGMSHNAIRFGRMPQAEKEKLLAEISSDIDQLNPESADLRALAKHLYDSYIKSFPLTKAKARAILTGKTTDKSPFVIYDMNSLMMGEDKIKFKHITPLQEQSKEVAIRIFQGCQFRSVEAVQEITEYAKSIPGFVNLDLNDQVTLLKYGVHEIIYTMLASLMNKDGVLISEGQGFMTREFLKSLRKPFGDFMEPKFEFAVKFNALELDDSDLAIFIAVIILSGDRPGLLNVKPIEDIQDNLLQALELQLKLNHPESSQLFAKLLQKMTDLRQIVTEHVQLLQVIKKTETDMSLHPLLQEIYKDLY

[6] = biological target: T6, Peroxisome proliferator-activated receptor alpha (Homo sapiens, UniProt Q07869); assay: PPAR alpha Fluorescence Polarization Assay; conditions: pH 8; 22 °C
T6 sequence (Q07869 whole entry): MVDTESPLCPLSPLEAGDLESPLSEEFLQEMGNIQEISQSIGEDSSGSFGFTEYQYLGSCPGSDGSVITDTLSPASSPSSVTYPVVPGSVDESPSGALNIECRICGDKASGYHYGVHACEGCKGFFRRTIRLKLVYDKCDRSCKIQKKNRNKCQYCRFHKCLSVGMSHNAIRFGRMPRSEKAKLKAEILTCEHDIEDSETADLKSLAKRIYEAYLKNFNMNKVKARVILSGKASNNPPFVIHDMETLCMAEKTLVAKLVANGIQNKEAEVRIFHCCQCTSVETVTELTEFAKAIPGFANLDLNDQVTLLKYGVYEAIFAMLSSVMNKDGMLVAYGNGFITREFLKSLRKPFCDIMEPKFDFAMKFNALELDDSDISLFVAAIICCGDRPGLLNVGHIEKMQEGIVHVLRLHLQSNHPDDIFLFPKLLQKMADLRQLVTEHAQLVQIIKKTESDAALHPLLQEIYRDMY

SMILES | EC50 [1] | EC50 [2] | EC50 [3] | EC50 [4] | IC50 [5] | IC50 [6] | EC50 [6]
COC(=O)N(CC(=O)O)Cc1cccc(OCc2nc(-c3ccc(Cl)cc3)oc2C)c1 [2-{[(3-{[2-(4-chlorophenyl)-5-methyl-1,3-oxazol-4-yl]methoxy}phenyl)methyl](methoxycarbonyl)amino}acetic acid] | 0.317 µM | – | – | – | – | – | –
COC(=O)N(CC(=O)O)Cc1cc(OCc2nc(-c3ccc(Cl)cc3)oc2C)ccc1F [2-{[(5-{[2-(4-chlorophenyl)-5-methyl-1,3-oxazol-4-yl]methoxy}-2-fluorophenyl)methyl](methoxycarbonyl)amino}acetic acid] | 0.123 µM | 0.145 µM | > 25 µM | 0.178 µM | > 15 µM | 0.097 µM | –
CC(Oc1ccc(Oc2ccc(Cl)cc2)cc1)C(=O)O (configuration not stated) [Clofop] | 17.7 µM | 18.5 µM | – | 28.7 µM | – | > 98.4 µM | 11.6 µM
